{"source": "PubChem BioAssay AID1918939", "about": "(Molecular Pharmacology Branch, DTP, NCI, 2023)", "tested_on": "653999-131-R-J2-PDC complex spheroid viability", "assay": "Anticancer human tumor 653999-131-R-J2-PDC patient-derived lung adenocarcinoma cell line growth inhibition", "conditions": "for IC50: curve of first compound; for viability, T/C: stronger effect = lower value", "how_it_was_run": "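Complex spheroids of tumor cells with HUVEC and human MSCs, exposed to iadademstat combined with other agents. Each agent tested in half-log steps from near clinical Cmax (else 10 microM top), DMSO ≤0.25%.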"}
{"molecule": "CC1(C)CCC(CN2CCN(c3ccc(C(=O)NS(=O)(=O)c4ccc(NCC5CCOCC5)c([N+](=O)[O-])c4)c(Oc4cnc5[nH]ccc5c4)c3)CC2)=C(c2ccc(Cl)cc2)C1", "note": "+ NC1CC1c1ccc(-c2cccc(O)c2)cc1;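 further: spheroids exposed to agents for seven days before readout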", "values": [{"measurement": "IC50", "setting": "second compound 0.1 µM", "result": 5.74, "unit": "µM"}, {"measurement": "IC50", "setting": "second compound 0.316 µM", "result": 4.87, "unit": "µM"}, {"measurement": "IC50", "setting": "second compound 1 µM", "result": 5.19, "unit": "µM"}, {"measurement": "IC50", "setting": "second compound 3.16 µM", "result": 5.26, "unit": "µM"}, {"measurement": "IC50", "setting": "second compound 10 µM", "result": 4.53, "unit": "µM"}, {"measurement": "viability, T/C", "setting": "second compound 0.1 µM, first compound 0.0316 µM", "result": 117, "unit": "%"}, {"measurement": "viability, T/C", "setting": "second compound 0.1 µM, first compound 0.1 µM", "result": 118, "unit": "%"}, {"measurement": "viability, T/C", "setting": "second compound 0.1 µM, first compound 0.316 µM", "result": 107, "unit": "%"}, {"measurement": "viability, T/C", "setting": "second compound 0.1 µM, first compound 1 µM", "result": 102, "unit": "%"}, {"measurement": "viability, T/C", "setting": "second compound 0.1 µM, first compound 3.16 µM", "result": 81.5, "unit": "%"}, {"measurement": "viability, T/C", "setting": "second compound 0.1 µM, first compound 10 µM", "result": 21.6, "unit": "%"}, {"measurement": "viability, T/C", "setting": "second compound 0.316 µM, first compound 0.0316 µM", "result": 103, "unit": "%"}, {"measurement": "viability, T/C", "setting": "second compound 0.316 µM, first compound 0.1 µM", "result": 112, "unit": "%"}, {"measurement": "viability, T/C", "setting": "second compound 0.316 µM, first compound 0.316 µM", "result": 101, "unit": "%"}, {"measurement": "viability, T/C", "setting": "second compound 0.316 µM, first compound 1 µM", "result": 99.3, "unit": "%"}, {"measurement": "viability, T/C", "setting": "second compound 0.316 µM, first compound 3.16 µM", "result": 65.7, "unit": "%"}, {"measurement": "viability, T/C", "setting": "second compound 0.316 µM, first compound 10 µM", "result": 23.6, "unit": "%"}, {"measurement": "viability, T/C", "setting": "second compound 1 µM, first compound 0.0316 µM", "result": 103, "unit": "%"}, {"measurement": "viability, T/C", "setting": "second compound 1 µM, first compound 0.1 µM", "result": 101, "unit": "%"}, {"measurement": "viability, T/C", "setting": "second compound 1 µM, first compound 0.316 µM", "result": 107, "unit": "%"}, {"measurement": "viability, T/C", "setting": "second compound 1 µM, first compound 1 µM", "result": 107, "unit": "%"}, {"measurement": "viability, T/C", "setting": "second compound 1 µM, first compound 3.16 µM", "result": 72.6, "unit": "%"}, {"measurement": "viability, T/C", "setting": "second compound 1 µM, first compound 10 µM", "result": 20.2, "unit": "%"}, {"measurement": "viability, T/C", "setting": "second compound 3.16 µM, first compound 0.0316 µM", "result": 89.9, "unit": "%"}, {"measurement": "viability, T/C", "setting": "second compound 3.16 µM, first compound 0.1 µM", "result": 84.2, "unit": "%"}, {"measurement": "viability, T/C", "setting": "second compound 3.16 µM, first compound 0.316 µM", "result": 105, "unit": "%"}, {"measurement": "viability, T/C", "setting": "second compound 3.16 µM, first compound 1 µM", "result": 86.8, "unit": "%"}, {"measurement": "viability, T/C", "setting": "second compound 3.16 µM, first compound 3.16 µM", "result": 76.5, "unit": "%"}, {"measurement": "viability, T/C", "setting": "second compound 3.16 µM, first compound 10 µM", "result": 16.8, "unit": "%"}, {"measurement": "viability, T/C", "setting": "second compound 10 µM, first compound 0.0316 µM", "result": 85.3, "unit": "%"}, {"measurement": "viability, T/C", "setting": "second compound 10 µM, first compound 0.1 µM", "result": 102, "unit": "%"}, {"measurement": "viability, T/C", "setting": "second compound 10 µM, first compound 0.316 µM", "result": 89.4, "unit": "%"}, {"measurement": "viability, T/C", "setting": "second compound 10 µM, first compound 1 µM", "result": 95.8, "unit": "%"}, {"measurement": "viability, T/C", "setting": "second compound 10 µM, first compound 3.16 µM", "result": 68.8, "unit": "%"}, {"measurement": "viability, T/C", "setting": "second compound 10 µM, first compound 10 µM", "result": 8.78, "unit": "%"}]}
